Tests used:
barnyardgrass = test: Test B pre-/postemergence herbicide test; format: in vivo, Echinochloa crus-galli; conditions: for Barnyardgrass plant response rating (0 to 100 scale) / Plant response rating, Barnyardgrass: 0 = no effect, 100 = complete control, preemergence; for Barnyardgrass plant response rating: postemergence
How it was run: (§1)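 Herbicidal effect was judged by eye on a 0–100 scale after plants stood 13 to 15 days in the greenhouse following pre- or postemergence treatment with surfactant-containing formulations.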

pigweed = test: Test B pre-/postemergence herbicide test; format: in vivo, Amaranthus retroflexus; conditions: for Pigweed plant response rating: postemergence
How it was run: (§2)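 Evaluation is visual, comparing treated with control plants on a scale where 0 means no effect and 100 means full control. Treatments were preemergence, or postemergence on seedlings 2–18 cm tall, and held 13–15 days in the greenhouse.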

cocklebur = test: Test B pre-/postemergence herbicide test; format: in vivo, Xanthium strumarium; conditions: for Cocklebur plant response rating (0 to 100 scale) / Plant response rating, Cocklebur: 0 = no effect, 100 = complete control, preemergence; for Cocklebur plant response rating: postemergence
How it was run: as §1

lambsquarters = test: Test B pre-/postemergence herbicide test; format: in vivo, Chenopodium album; conditions: for Lambsquarters plant response rating: postemergence
How it was run: as §2

velvetleaf = test: Test B pre-/postemergence herbicide test; format: in vivo, Abutilon theophrasti; conditions: for Velvetleaf plant response rating: postemergence; for Plant response rating, Velvetleaf: 0 = no effect, 100 = complete control, preemergence
How it was run: as §2

morningglory = test: Test B pre-/postemergence herbicide test; format: in vivo, Ipomoea coccinea; conditions: for Morningglory plant response rating (0 to 100 scale) / Plant response rating, Morningglory: 0 = no effect, 100 = complete control, preemergence; for Morningglory plant response rating: postemergence
How it was run: as §1

rice = test: Test B flooded paddy test; format: in vivo, Oryza sativa; conditions: 1000 g ai/ha, scale 0 to 100 (0 no effect, 100 complete control)
How it was run: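 Each value is a visual 0–100 response rating taken against controls 13 to 15 days after treatment in the greenhouse. Plants received formulated chemical postemergence at the 1- to 4-leaf stage or, in flooded paddy, at the 2-leaf stage.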

ducksalad = test: Test B flooded paddy test; format: in vivo, Heteranthera limosa; conditions: 1000 g ai/ha, scale 0 to 100 (0 no effect, 100 complete control)
How it was run: (§3)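 Treated at 2-leaf (paddy) or 1–4-leaf, 2–18 cm (postemergence); greenhouse 13–15 d; visual score vs control, 0 none to 100 complete control; dash = not tested.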

wild oat = test: Test B postemergence herbicide test; format: in vivo, Avena fatua; conditions: postemergence
How it was run: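 After treating 2-leaf paddy plants or 2–18 cm postemergence plants (1 to 4 leaves) with formulated chemical, researchers kept them in a greenhouse for 13–15 days. Effects were judged visually versus controls: 0 indicates none, 100 total control.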

corn = test: Test B pre-/postemergence herbicide test; format: in vivo, Zea mays; conditions: for Corn plant response rating (0 to 100 scale) / Plant response rating, Corn: 0 = no effect, 100 = complete control, preemergence; for Corn plant response rating: postemergence
How it was run: as §2

[1] = tested on: small flower umbrella sedge; test: Test B flooded paddy test; format: in vivo, Cyperus difformis; conditions: 1000 g ai/ha, scale 0 to 100 (0 no effect, 100 complete control)
How it was run: as §3

giant foxtail = test: Test B pre-/postemergence herbicide test; format: in vivo, Setaria faberi; conditions: for Foxtail, Giant plant response rating (0 to 100 scale) / Plant response rating, Foxtail, Giant: 0 = no effect, 100 = complete control, preemergence; for Foxtail, Giant plant response rating: postemergence
How it was run: as §2

blackgrass = test: Test B postemergence herbicide test; format: in vivo, Alopecurus myosuroides; conditions: postemergence
How it was run: as §3

large crabgrass = test: Test B pre-/postemergence herbicide test; format: in vivo, Digitaria sanguinalis; conditions: for Crabgrass, Large plant response rating (0 to 100 scale) / Plant response rating, Crabgrass, Large: 0 = no effect, 100 = complete control, preemergence; for Crabgrass, Large plant response rating: postemergence
How it was run: as §2

Surinam grass = test: Test B pre-/postemergence herbicide test; format: in vivo, Urochloa decumbens; conditions: for Surinam Grass plant response rating (0 to 100 scale) / Plant response rating, Surinam Grass: 0 = no effect, 100 = complete control, preemergence; for Surinam Grass plant response rating: postemergence
How it was run: as §2

[2] = 125 g ai/ha, visual rating, scale 0 (no effect) to 100 (complete control)
[3] = 500 g ai/ha, scale 0 to 100, 0 is no effect, 100 is complete control
[4] = 125 g ai/ha, 0 = no effect, 100 = complete control, preemergence
[5] = 500 g ai/ha, visual rating, 0 = no effect, 100 = complete control, preemergence

CCOC(=O)c1cccc(NC(=O)c2cc(C3(C)CC3)nn2CC)c1 [Compound 295]
Barnyardgrass plant response rating (0 to 100 scale) (barnyardgrass; 125 g ai/ha): 10
Barnyardgrass plant response rating (barnyardgrass; [2]): 30
Plant response rating, Barnyardgrass (barnyardgrass; 500 g ai/ha, visual rating): 20
Barnyardgrass plant response rating (barnyardgrass; [3]): 50
Pigweed plant response rating (0 to 100 scale) (pigweed; [4]): 0
Pigweed plant response rating (pigweed; [2]): 100
Pigweed plant response rating (pigweed; [3]): 100
Cocklebur plant response rating (0 to 100 scale) (cocklebur; 125 g ai/ha): 0
Cocklebur plant response rating (cocklebur; [2]): 40
Plant response rating, Cocklebur (cocklebur; 500 g ai/ha, visual rating): 0
Cocklebur plant response rating (cocklebur; [3]): 90
Lambsquarters plant response rating (0 to 100 scale) (lambsquarters; [4]): 0
Lambsquarters plant response rating (lambsquarters; [2]): 40
Lambsquarters plant response rating (lambsquarters; [3]): 60
Velvetleaf plant response rating (velvetleaf; [2]): 70
Plant response rating, Velvetleaf (velvetleaf; 500 g ai/ha, visual rating): 60
Velvetleaf plant response rating (velvetleaf; [3]): 100
Morningglory plant response rating (0 to 100 scale) (morningglory; 125 g ai/ha): 0
Morningglory plant response rating (morningglory; [2]): 50
Plant response rating, Morningglory (morningglory; 500 g ai/ha, visual rating): 20
Morningglory plant response rating (morningglory; [3]): 100
Rice plant response rating (rice): 50
Ducksalad plant response rating (ducksalad): 70
Oat, Wild plant response rating (wild oat; [2]): 40
Oat, Wild plant response rating (wild oat; [3]): 50
Corn plant response rating (0 to 100 scale) (corn; 125 g ai/ha): 0
Corn plant response rating (corn; [2]): 10
Plant response rating, Corn (corn; 500 g ai/ha, visual rating): 10
Corn plant response rating (corn; [3]): 20
Sedge, Umbrella plant response rating [1]: 80
Foxtail, Giant plant response rating (0 to 100 scale) (giant foxtail; 125 g ai/ha): 10
Foxtail, Giant plant response rating (giant foxtail; [2]): 60
Plant response rating, Foxtail, Giant (giant foxtail; 500 g ai/ha, visual rating): 70
Foxtail, Giant plant response rating (giant foxtail; [3]): 70
Blackgrass plant response rating (blackgrass; [2]): 30
Blackgrass plant response rating (blackgrass; [3]): 40
Crabgrass, Large plant response rating (0 to 100 scale) (large crabgrass; 125 g ai/ha): 10
Crabgrass, Large plant response rating (large crabgrass; [2]): 30
Plant response rating, Crabgrass, Large (large crabgrass; 500 g ai/ha, visual rating): 80
Crabgrass, Large plant response rating (large crabgrass; [3]): 60
Surinam Grass plant response rating (0 to 100 scale) (Surinam grass; 125 g ai/ha): 0
Surinam Grass plant response rating (Surinam grass; [2]): 50
Plant response rating, Surinam Grass (Surinam grass; 500 g ai/ha, visual rating): 20
Surinam Grass plant response rating (Surinam grass; [3]): 60

CCn1nc(C(C)(C)C)cc1C(=O)Nc1ccc(OC)c(OC)c1 [Compound 298]
Barnyardgrass plant response rating (0 to 100 scale) (barnyardgrass; 125 g ai/ha): 70
Barnyardgrass plant response rating (barnyardgrass; [2]): 10
Plant response rating, Barnyardgrass (barnyardgrass; 500 g ai/ha, visual rating): 90
Barnyardgrass plant response rating (barnyardgrass; [3]): 50
Pigweed plant response rating (0 to 100 scale) (pigweed; [4]): 100
Pigweed plant response rating (pigweed; [2]): 80
Plant response rating, Pigweed (pigweed; [5]): 100
Pigweed plant response rating (pigweed; [3]): 90
Cocklebur plant response rating (0 to 100 scale) (cocklebur; 125 g ai/ha): 0
Cocklebur plant response rating (cocklebur; [2]): 20
Plant response rating, Cocklebur (cocklebur; 500 g ai/ha, visual rating): 0
Cocklebur plant response rating (cocklebur; [3]): 50
Lambsquarters plant response rating (0 to 100 scale) (lambsquarters; [4]): 100
Lambsquarters plant response rating (lambsquarters; [2]): 40
Plant response rating, Lambsquarters (lambsquarters; [5]): 100
Lambsquarters plant response rating (lambsquarters; [3]): 90
Velvetleaf plant response rating (velvetleaf; [2]): 60
Plant response rating, Velvetleaf (velvetleaf; 500 g ai/ha, visual rating): 60
Velvetleaf plant response rating (velvetleaf; [3]): 60
Morningglory plant response rating (0 to 100 scale) (morningglory; 125 g ai/ha): 10
Morningglory plant response rating (morningglory; [2]): 60
Plant response rating, Morningglory (morningglory; 500 g ai/ha, visual rating): 40
Morningglory plant response rating (morningglory; [3]): 70
Rice plant response rating (rice): 80
Ducksalad plant response rating (ducksalad): 90
Oat, Wild plant response rating (wild oat; [2]): 30
Oat, Wild plant response rating (wild oat; [3]): 40
Corn plant response rating (0 to 100 scale) (corn; 125 g ai/ha): 30
Corn plant response rating (corn; [2]): 0
Plant response rating, Corn (corn; 500 g ai/ha, visual rating): 70
Corn plant response rating (corn; [3]): 10
Sedge, Umbrella plant response rating [1]: 70
Foxtail, Giant plant response rating (0 to 100 scale) (giant foxtail; 125 g ai/ha): 80
Foxtail, Giant plant response rating (giant foxtail; [2]): 10
Plant response rating, Foxtail, Giant (giant foxtail; 500 g ai/ha, visual rating): 100
Foxtail, Giant plant response rating (giant foxtail; [3]): 50
Blackgrass plant response rating (blackgrass; [2]): 20
Blackgrass plant response rating (blackgrass; [3]): 50
Crabgrass, Large plant response rating (0 to 100 scale) (large crabgrass; 125 g ai/ha): 100
Crabgrass, Large plant response rating (large crabgrass; [2]): 20
Plant response rating, Crabgrass, Large (large crabgrass; 500 g ai/ha, visual rating): 100
Crabgrass, Large plant response rating (large crabgrass; [3]): 70
Surinam Grass plant response rating (0 to 100 scale) (Surinam grass; 125 g ai/ha): 80
Surinam Grass plant response rating (Surinam grass; [2]): 20
Plant response rating, Surinam Grass (Surinam grass; 500 g ai/ha, visual rating): 100
Surinam Grass plant response rating (Surinam grass; [3]): 50

From patent publication US20060069132A1, “Azolecarboxamide herbicides” (priority 2004, published 2006)
